Results on 29 compounds are retold here after patent publication US9688630B2, “3,3′-disubstituted indolines as inhibitors of cholesterol ester transfer protein” (Merck Sharp & Dohme Corp., priority 2013, dated 2017).

Structures are written as SMILES.

One test addresses T1, recombinant CETP (Homo sapiens, UniProt P11597).
T1 sequence (P11597 18-493): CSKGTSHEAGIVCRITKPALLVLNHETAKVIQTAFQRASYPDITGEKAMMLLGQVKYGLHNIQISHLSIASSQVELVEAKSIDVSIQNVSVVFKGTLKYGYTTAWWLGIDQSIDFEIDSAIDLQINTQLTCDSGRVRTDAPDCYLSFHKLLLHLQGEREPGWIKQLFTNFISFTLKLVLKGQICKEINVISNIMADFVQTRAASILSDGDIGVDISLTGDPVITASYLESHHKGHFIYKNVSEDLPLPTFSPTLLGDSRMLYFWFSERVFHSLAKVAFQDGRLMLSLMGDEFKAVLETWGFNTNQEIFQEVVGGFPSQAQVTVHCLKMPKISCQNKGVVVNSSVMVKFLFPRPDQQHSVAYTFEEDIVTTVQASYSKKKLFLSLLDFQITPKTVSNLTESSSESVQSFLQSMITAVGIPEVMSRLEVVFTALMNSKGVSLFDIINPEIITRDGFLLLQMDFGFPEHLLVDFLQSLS
As to the kind of experiment: RTA assay using recombinant CETP (2% RTA). As to conditions: 2% human serum. It is filed as biochemical. The protocol:
(§1) In Vitro Radioactive Assays of CETP-Catalyzed CE and TG Transfer (RTA Assay)
(§2) Reagents and sources are: [3H] cholesteryl oleate (GE #TRK.886), [3H] Triolein (Perkin-Elmer NET-431), Butylated hydroxyl toluene (Aldrich, #D4740-4), DOPC (Sigma, #P6354), Sodium Bromide (Fisher scientific #S255-500), PEG 8000 (Fisher, #BP233-1), and human HDL (Intracel Corp #RP-036).
(§3) An in vitro assay for determining IC50's to identify compounds that inhibit CETP transfer activity is performed based on a modification of a published method (Morton and Zilversmit, (1981) A plasma inhibitor of triglyceride and cholesteryl ester transfer activities, J. Biol. Chem. 256(23), 11992-11995). The ability of inhibitors to alter CETP activity is performed using two different assays: one using recombinant CETP and one using an endogenous plasma source of CETP. Both assays measure the transfer of [3H] cholesteryl oleate or [3H] triolein from exogenous LDL to HDL.
(§4) Radiolabeled donor particles are generated by first combining 100 μl of 200 μM butylated hydroxyl toluene in CHCl3, 216 μL of 21.57 mM DOPC in EtOH, and either 500 μCi [3H]-triolein (Perkin Elmer #NET-431) or 500 μCi [3H]-cholesteryl oleate (GE #TRK886) in a glass tube. Reagents are mixed, dried under nitrogen, and then resuspended in 2 mL of 50 mM Tris, 27 μM EDTA at pH 7.4. After a brief vortex, the solution is sonicated until clear and mixed with 20 mL of fresh human serum. The mixture is incubated overnight at 37° C. The [3H] labeled LDL substrate is separated at 1.063 g/ml density by sequential ultracentrifugal flotation in NaBr according to the method of Havel, Eder, et al., 1955, and Chapman, Goldstein, et al., 1981. Once isolated the particles are dialyzed 3× in CETP buffer (50 mM Tris, pH 7.4, 100 mM NaCl, 1 mM EDTA). Human HDL is purchased from Intracel and used as the acceptor particles.
(§5) Transfer assays are performed in a 96-well v-bottom polypropylene plate. For the RTA using recombinant CETP (2% RTA), an assay cocktail is prepared with the final concentrations 128 μg/mL HDL, 20 nM rCETP, 2% human serum, and 1×CETP buffer. 1 μL of each test compound diluted in DMSO is added to 47 μL of assay cocktail per well and incubated at 37° C. for 1 hour. To initiate the transfer reaction, 2 μL radiolabeled LDL is added. After an additional 60 min of incubation at 37° C., the transfer action is terminated by precipitation of LDL with an equal volume of 20% W/V PEG 8000. The plates are centrifuged at 2000 rpm for 30 minutes at 4° C. A 40 μL aliquot of the HDL-containing supernatant is transferred to a Packard Optiplate™ with 200 μL of MicroScint™ 20. After mixing, plates are counted by liquid scintillation. Counts present in the supernatant for blanks (wells containing only HDL acceptor, CETP buffer and DMSO) are subtracted from those containing test compounds and used to correct for non-specific transfer.
(§6) Comparison of the counts of samples with inhibitors to an uninhibited (DMSO only) positive control yield a percent inhibition. A plot of percent inhibition vs. log of inhibitor concentration, fit to a Sigmoidal 4 parameter equation is used to calculate IC50.

For test [1], the target named is T2, endogenous CETP from human serum (Homo sapiens, UniProt P11597).
T2 construct: yielding a concentration of approximately 15 nM endogenous CETP in the assay; from tissue; host or cells: human serum
T2 sequence (P11597 18-493): T1 sequence (P11597 18-493)
As to the kind of experiment: RTA assay using endogenous CETP from serum (95% RTA). It is filed as biochemical. The settings on record: 95% human serum. The protocol: as §1, §2, §3, §4, §5
For the transfer assay using endogenous CETP from serum (95% RTA), the same procedure is used except that human serum is added such that a final concentration of serum of 95% of the total assay volume is achieved, yielding a concentration of approximately 15 nM endogenous CETP in the assay. This is then combined with HDL and CETP buffer and the reaction proceeds as above and is terminated as described.
as §6

Usually IC50 stands for the concentration at which inhibition is half-maximal. In the case of `O[C@H](CN1CC(Cc2cccc(OC(F)(F)F)c2)(c2cccc(C(F)(F)F)c2)c2ccccc21)C(F)(F)F` (mixture of isomers) [Example 1, (2R)-1,1,1-trifluoro-3-(3-(3-(trifluoromethoxy)benzyl)-3-(3-(trifluoromethyl)-phenyl)indolin-1-yl)propan-2-ol], the IC50 at recombinant CETP was determined as 28 nM; in test [1], 1220 nM. For `O[C@H](CN1CC(Cc2cccc(OC(F)(F)F)c2)(c2cccc(Cl)c2)c2ccccc21)C(F)(F)F` (mixture of isomers) [Example 4, (2R)-3-(3-(3-chlorophenyl)-3-(3-(trifluoromethoxy)benzyl)indolin-1-yl)-1,1,1-trifluoropropan-2-ol], the IC50 came to 466 nM on recombinant CETP and 1380 nM in test [1]. On to `COc1cccc(-c2cccc(C3(Cc4cccc(OC(F)(F)F)c4)CN(C[C@@H](O)C(F)(F)F)c4ccccc43)c2)c1` (mixture of isomers) [Example 25, (2R)-1,1,1-trifluoro-3-(3-(3′-methoxy-[1,1′-biphenyl]-3-yl)-3-(3-(trifluoromethoxy)benzyl)indolin-1-yl)propan-2-ol], for which the IC50 at recombinant CETP stood at 1470 nM; in test [1] it was 3130 nM. For `O=C(O)c1ccc(-c2cccc(C3(Cc4cccc(OC(F)(F)F)c4)CN(C[C@@H](O)C(F)(F)F)c4ccccc43)c2)cc1` (mixture of isomers) [Example 26, 3′-(1-((R)-3,3,3-trifluoro-2-hydroxypropyl)-3-(3-(trifluoromethoxy)-benzyl)indolin-3-yl)-[1,1′-biphenyl]-4-carboxylic acid], in that order: 1350 nM and 3860 nM. The like results for `O[C@H](CN1CC(Cc2cccc(OC(F)(F)F)c2)(c2cccc(N3CCOCC3)c2)c2ccccc21)C(F)(F)F` (mixture of isomers) [Example 31, (2R)-1,1,1-trifluoro-3-(3-(3-morpholinophenyl)-3-(3-(trifluoromethoxy)benzyl)indolin-1-yl)propan-2-ol] were, in that order, 146 nM and 643 nM. The like results for `O[C@H](CN1CC(Cc2cccc(OC(F)(F)F)c2)(c2cccc(N[C@@H]3CCOC3)c2)c2ccccc21)C(F)(F)F` (mixture of isomers) [Example 32] were, in that order, 252 nM and 1430 nM. Turning to `O[C@H](CN1CC(Cc2ccccc2)(c2cccc(OC(F)(F)F)c2)c2ccccc21)C(F)(F)F` (stereo partly drawn) [Example 2], the IC50 on recombinant CETP turned out to be 238 nM; in test [1] it was 746 nM.

Take `O[C@H](CN1CC(Cc2cccc(Br)c2)(c2cccc(OC(F)(F)F)c2)c2ccccc21)C(F)(F)F` (stereo partly drawn) [Example 3, (2R)-3-(3-(3-bromobenzyl)-3-(3-(trifluoromethoxy)phenyl)indolin-1-yl)-1,1,1-trifluoropropan-2-ol]: the concentration for half-maximal inhibition (IC50) is 67 nM on recombinant CETP and 308 nM in test [1].

In the case of `COc1ccc(CC2(c3cccc(OC(F)(F)F)c3)CN(C[C@@H](O)C(F)(F)F)c3ccccc32)cc1` (stereo partly drawn) [Example 5], the figures for the IC50 (at recombinant CETP; in test [1]) were 2150 nM and 9680 nM, respectively. Compound `O[C@H](CN1CC(Cc2cccc(OC(F)(F)F)c2)(c2cccc(OC(F)(F)F)c2)c2cc(F)ccc21)C(F)(F)F` (stereo partly drawn) [Example 6] came in with an IC50 in test [1] of 763 nM. Regarding `O[C@H](CN1CC(Cc2cccc(OC(F)(F)F)c2)(c2ccc(OC(F)(F)F)cc2)c2ccccc21)C(F)(F)F` (stereo partly drawn) [Example 7], in test [1], the midpoint of inhibition, the IC50, lay at 232 nM. On to `O[C@H](CN1CC(Cc2cccc(OC(F)(F)F)c2)(c2cccc(OC(F)(F)C(F)F)c2)c2ccccc21)C(F)(F)F` (stereo partly drawn) [Example 8], for which the IC50 is 25 nM at recombinant CETP and 94 nM in test [1]. For `O[C@H](CN1CC(Cc2ccccc2OC(F)(F)F)(c2cccc(OC(F)(F)F)c2)c2ccccc21)C(F)(F)F` (stereo partly drawn) [Example 9], in that order: 1210 nM and 3370 nM.

Compound `O[C@H](CN1CC(Cc2cccc(OC(F)(F)F)c2)(c2cccc(OC(F)(F)F)c2)c2ccccc21)C(F)(F)F` (stereo partly drawn) [Example 10] had an IC50 in test [1] of 69 nM. In the case of `Cc1cccc2c1N(C[C@@H](O)C(F)(F)F)CC2(Cc1cccc(OC(F)(F)F)c1)c1cccc(OC(F)(F)F)c1` (stereo partly drawn) [Example 11], the IC50 on recombinant CETP was determined as 155 nM; in test [1], 491 nM.

Take `O[C@H](CN1CC(Cc2cccc(OC(F)(F)F)c2)(c2cccc(OC(F)(F)F)c2)c2cccc(F)c21)C(F)(F)F` (stereo partly drawn) [Example 12]: the half-inhibitory concentration (IC50) on recombinant CETP amounted to 67 nM; in test [1], 222 nM. With `O[C@H](CN1CC(Cc2cccc(OC(F)(F)F)c2)(c2cc(F)cc(C(F)(F)F)c2)c2ccccc21)C(F)(F)F` (stereo partly drawn) [Example 13], the results for the IC50 (on recombinant CETP; in test [1]) were 102 nM and 2510 nM, respectively. For `O[C@H](CN1CC(Cc2cccc(OC(F)(F)F)c2)(c2ccc(F)c(C(F)(F)F)c2)c2ccccc21)C(F)(F)F` (stereo partly drawn) [Example 14], in that order: 277 nM and 685 nM. With `O[C@H](CN1CC(Cc2ccc(F)cn2)(c2cccc(OC(F)(F)F)c2)c2cccc(F)c21)C(F)(F)F` (stereo partly drawn) [Example 15], on recombinant CETP, the concentration for half-maximal inhibition (IC50) amounted to 2860 nM. As for `Cc1csc(CC2(c3cccc(OC(F)(F)F)c3)CN(C[C@@H](O)C(F)(F)F)c3c(F)cccc32)n1` (stereo partly drawn) [Example 16], the IC50 was determined as 296 nM on recombinant CETP and 2000 nM in test [1]. Regarding `O[C@H](CN1CC(Cc2cccc(C(F)(F)F)c2)(c2cccc(OC(F)(F)F)c2)c2cccc(F)c21)C(F)(F)F` (stereo partly drawn) [Example 17], the IC50 at recombinant CETP was 66 nM; in test [1], 706 nM. The like results for `Cc1ccc(C2(Cc3cccc(OC(F)(F)F)c3)CN(C[C@@H](O)C(F)(F)F)c3ccccc32)cc1Cl` (stereo partly drawn) [Example 18] were, in that order, 161 nM and 1350 nM. In the case of `O[C@H](CN1CC(Cc2cccc(OC(F)(F)F)c2)(c2ccc(F)c(Cl)c2)c2ccccc21)C(F)(F)F` (stereo partly drawn) [Example 19], the IC50 on recombinant CETP worked out at 883 nM; in test [1], 3740 nM. The like results for `O[C@H](CN1CC(Cc2cccc(OC(F)(F)F)c2)(c2ccnc(C(F)(F)F)c2)c2ccccc21)C(F)(F)F` (stereo partly drawn) [Example 20] were, in that order, 447 nM and 2600 nM. The like results for `CCOc1cc(C2(Cc3cccc(OC(F)(F)F)c3)CN(C[C@@H](O)C(F)(F)F)c3ccccc32)ccn1` (stereo partly drawn) [Example 21] were, in that order, 60 nM and 283 nM. For `CC(C)Oc1cc(C2(Cc3cccc(OC(F)(F)F)c3)CN(C[C@@H](O)C(F)(F)F)c3ccccc32)ccn1` (stereo partly drawn) [Example 22], in that order: 43 nM and 101 nM. Turning to `Cc1ccc(C2(Cc3cccc(OC(F)(F)F)c3)CN(C[C@@H](O)C(F)(F)F)c3ccccc32)cc1-c1ccc(C(=O)O)cc1` (stereo partly drawn) [Example 28], on recombinant CETP, the IC50 stood at 1510 nM. Still for that read-out and setting: the same measure for `Cc1cc(C(=O)O)ccc1-c1cc(C2(Cc3cccc(OC(F)(F)F)c3)CN(C[C@@H](O)C(F)(F)F)c3ccccc32)ccc1C` (stereo partly drawn) [Example 29]: 1690 nM; for `Cc1cc(C(=O)O)ccc1-c1cc(C2(Cc3cccc(OC(F)(F)F)c3)CN(C[C@@H](O)C(F)(F)F)c3ccccc32)ccc1F` (stereo partly drawn) [Example 30]: 328 nM.
